Columns and labels:
intraocular pressure [1] = test: Intraocular pressure in dogs, applanation pneumatonometry; type: in vivo; settings: for reduced the intraocular pressure (IOP) by: 25 μl to the ocular surface, IOP at 6 hours
Description: The compounds were prepared at the said concentrations in a vehicle comprising 0.1% polysorbate 80 and 10 mM TRIS base. Dogs were treated by administering 25 μl to the ocular surface, the contralateral eye received vehicle as a control. Intraocular pressure was measured by applanation pneumatonometry. Dog intraocular pressure was measured immediately before drug administration and at 6 hours thereafter.

intraocular pressure [2] = test: Intraocular pressure in glaucomatous cynomolgus monkeys; type: in vivo, glaucomatous cynomonlgus monkey

SMILES	reduced the intraocular pressure (IOP) by (intraocular pressure [1]; dose of 0.01% w/v) [%]	reduced the intraocular pressure (IOP) by (intraocular pressure [1]; dose of 0.1% w/v) [%]	ocular hypotensive effect (intraocular pressure [1]; topical ocular, 25 μl)	effect on IOP (intraocular pressure [2]; glaucomatous cynomonlgus monkey, dose of 0.01% w/v)	ocular hypotensive effect (intraocular pressure [2]; glaucomatous cynomonlgus monkeys)
CCCCC[C@H](O)/C=C/[C@H]1[C@H](O)CC(=O)[C@@H]1SCCCSCC(=O)O [Compound 9, {3-[(1R,2S,3R)-3-Hydroxy-2-((S)-(E)-3-hydroxyoct-1-enyl)-5-oxocyclopentyl-sulfanyl]propylsulfanyl}acetic acid]	45	50	pronounced ocular hypotensive effect	–	–
CCCCC[C@H](O)/C=C/[C@H]1[C@H](O)CC(=O)[C@@H]1SCCCSCC(=O)OC(C)C [Compound 10, {3-[(1R,2S,3R)-3-Hydroxy-2-((S)-(E)-3-hydroxyoct-1-enyl)-5-oxocyclopentyl-sulfanyl]propylsulfanyl}acetic acid isopropyl ester]	–	–	–	reduced the IOP	pronounced ocular hypotensive effect

Reference: patent publication US6410591B1, “3,7 or 3 and 7 thia or oxa prostanoic acid derivatives as agents for lowering intraocular pressure” (Allergan Sales, Inc., priority 2001, dated 2002)
